Experiments:
CsDIR2 = target: T1, CsDIR2 (Cucumis sativus, UniProt A0A0A0KZ41); assay: TNS fluorescence displacement; format: binding; conditions: 16 uM ligand; TNS 5 uM (methods) or 3 uM; pH 7 buffer; in cavity or allosteric
T1 construct: gene Csa_4G017140; Rosetta Gami E. coli; S-Tag thrombin purification; His-tagged
T1 sequence (A0A0A0KZ41 26-101): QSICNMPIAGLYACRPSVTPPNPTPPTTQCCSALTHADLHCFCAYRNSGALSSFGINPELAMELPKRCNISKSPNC

CsDIR1 = target: T2, CsDIR1 (Cucumis sativus, UniProt A0A0A0K4Q7); assay: TNS fluorescence displacement; format: binding; conditions: 16 uM ligand; TNS 5 uM (methods) or 3 uM; pH 7 buffer; in cavity or allosteric
T2 construct: gene Csa_7G372360; Rosetta Gami E. coli; S-Tag thrombin purification; His-tagged
T2 sequence (A0A0A0K4Q7 25-103): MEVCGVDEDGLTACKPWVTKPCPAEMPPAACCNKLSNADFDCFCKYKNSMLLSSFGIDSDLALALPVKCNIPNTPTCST

Row | % lower TNS fluorescence than MES control (CsDIR2) | % lower TNS fluorescence than MES control (CsDIR1) | SMILES
1 | ~ 30% | ~ 25% | O=C(O)CCCCCCCC(=O)O [AzA]
2 |  | ~ 25% | O=C(O)[C@@H]1CCCCN1 [Pip]

Source: article PMC4854023, “Orthology Analysis and In Vivo Complementation Studies to Elucidate the Role of DIR1 during Systemic Acquired Resistance in Arabidopsis thaliana and Cucumis sativus” (Frontiers in Plant Science, 2016)
